Data from patent US20190308994A1, “Topical Pharmaceutical Formulations For Treating Inflammatory-Related Conditions” (Anacor Pharmaceuticals, Inc., priority 2015, published 2019).
Values after ≈ are worked out from the molar mass of the structure shown. Read-outs that look alike come from different tables or passages of the source.

Legend:
[1] = Solubility of crisaborole in solvents by visual assessment; assay type: physicochemical
Experimental: (§1) One of the key aspects encountered in reformulating crisaborole was that the active agent be fully dissolved within its solvent. A selection criterion of greater than 10% w/w crisaborole solubility was used to select solvents capable of carrying at least 1% crisaborole in a final drug product formulation, assuming the drug product contained 10% solvent. The solubility of crisaborole in ten solvents was evaluated to identify those with crisaborole solubility greater than 10% w/w by visual assessment. The equilibrium solubility of the best solvents was subsequently verified by HPLC.

[2] = Equilibrium solubility of crisaborole in solvents by HPLC; assay type: physicochemical; conditions: thermodynamic from solid, read-out: Solubity by HPLC
Experimental: as §1

Compound: N#Cc1ccc(Oc2ccc3c(c2)COB3O)cc1 [Crisaborole Form II, 5-(4-cyanophenoxy)-1,3-dihydro-1-hydroxy-2,1-benzoxaborole]
- Visual Solubity ([1]; in Diisopropyl Adipate): 7.7% w/w
- Visual Solubity ([1]; in Ethylhexyl Hydroxystearate): 1.6% w/w
- Visual Solubity ([1]; in Hexylene Glycol, NF): 25.9% w/w
- Visual Solubity ([1]; in Isopropyl Myristate, NF): 0.6% w/w
- Visual Solubity ([1]; in Oleic Acid, NF): <0.1% w/w
- Visual Solubity ([1]; in Oleyl Alcohol, NF): 2.3% w/w
- Visual Solubity ([1]; in Polyethylene Glycol (PEG) 400, USP): 15.0% w/w
- Visual Solubity ([1]; in Propylene Carbonate, NF): 9.9% w/w
- Visual Solubity ([1]; in Propylene Glycol, USP): 24.0% w/w
- Visual Solubity ([1]; in Transcutol P, NF): 28.6% w/w
- solubility ([2]; oil or lipid, in Ethylhexyl Hydroxystearate): 21 mg/mL (≈ 83.6 mM)
- solubility ([2]; oil or lipid, in Oleyl Alcohol, NF): 33 mg/mL (≈ 131 mM)
- solubility ([2]; organic solvent or mixture, in Hexylene Glycol, NF): 356 mg/mL (≈ 1420 mM)
- solubility ([2]; organic solvent or mixture, in Polyethylene Glycol (PEG) 400, USP): 164 mg/mL (≈ 653 mM)
- solubility ([2]; organic solvent or mixture, in Propylene Carbonate, NF): 96 mg/mL (≈ 382 mM)
- solubility ([2]; organic solvent or mixture, in Propylene Glycol, USP): 274 mg/mL (≈ 1090 mM)
- solubility ([2]; organic solvent or mixture, in Transcutol P, NF): 21.2 mg/mL (≈ 84.4 mM)
